Laboratory results published in patent US20250034200A1, “Prodrugs of Neurosteroid Analogs and Uses Thereof” (priority 2021, published 2025).
Structures can show the parent of a compound that is named as a salt.

Assays:
[1] = Aqueous stability assay (HPLC, pseudo first-order half-life); format: physicochemical; conditions: for stability in the acidic aqueous mediums: pH 4.0 and 5.5
[2] = Plasma stability assay (LC-MS/MS); format: in vitro ADME; conditions: for formation of the corresponding oxime (progesterone C20-oxime) / half-life: human plasma; for half-life: 37° C., 3 μM, read-out: Plasma t1/2 (converted)
Summary of the method: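 Compound (3 μM final; 0.03% DMSO, up to 0.6% methanol) was incubated in human plasma at 37° C for up to 240 min, sampled at 0, 15, 30, 60, 120, 180 and 240 min in duplicate. Samples were quenched in cold acetonitrile or methanol with internal standard and quantified by LC-MS/MS (ESI+, MRM). Stability was derived from the slope of ln(% parent remaining) versus time.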

[3] = Nephelometry (aqueous solubility); format: physicochemical; conditions: DPBS with 1% DMSO, aqueous buffer, kinetic from dmso stock, DPBS pH 7.0-7.3, 1% DMSO, 25° C.
Source text: Well A1 of the plate contained 100% DMSO.

[4] = tested on: rat disease model of acute TBI; assay: Edema assay in rat model of acute TBI (controlled cortical impact); format: in vivo; conditions: for reduced brain edema: 10 mg/kg IM at 1 and 6 h post-TBI, edema at 24 h
Procedure: A prodrug dose of 10 mg/kg was chosen and administered IM at 1 and 6 hours post-injury. Prodrug dosage is equimolar±5% with respective to the parent compound.
Subjects—Male SD rats weighing 250-350 g at the time of injury were used for the efficacy study, which was conducted in our facility at Emory University. The rats were maintained on a reverse 12:12 light-dark cycle at 22±1° C. with appropriate humidity levels. After one week of quarantine the rats were handled at least 3 times prior to surgery. This study was conducted in a facility approved by the American Association for the Accreditation of Laboratory Animal Care (AAALAC) in accordance with all National Institutes of Health guidelines. All experimental animal procedures were approved by the Emory University Institutional Animal Care and Use Committee.
Contusion Injury—Rats were anesthetized using isoflurane gas (5% induction, 1.5% maintenance, 700 mmHg N2O, 500 mmHg O2) and then mounted in a Kopf stereotaxic device (David Kopf Instruments, Tujunga, CA, USA). The scalp incision area was shaved and sterilized with Betadine® antiseptic and 70% isopropanol. Physiological parameters were monitored with pulse oximetry (SurgiVet model V3304): heart rate was maintained above ˜300 beats per minute and SpO2 kept above 90%. Core body temperature (˜37° C.) was maintained with a homeothermic heating blanket system (Harvard Apparatus, Holliston, MA, USA). Under aseptic conditions, a midline incision was made into the skin and fascia covering the skull. Cotton swabs were used to staunch and clean any fascial bleeding. […]
Treatment—Animals were randomly assigned to one of four treatment groups. […] Percent change in brain tissue water content was measured.
Edema Assay—Edema was measured at 24 h after surgery. […] The percent water content was calculated by [(wet wt-dry wt)/wet wt]×100. The percent difference in water content between the anterior peri-contusional and the posterior distal section was calculated for each sample by: [(anterior H2O %-posterior H2O %)/(posterior H2O %)]×100.

[5] = Rat plasma pharmacokinetic study; conditions: IV and IM routes
Procedure: Test System—Healthy male Sprague Dawley rats (8-12 weeks old) weighing between 200 to 250 g were procured from Global, India. […] Temperature and humidity were maintained at 22±3° C. and 30-70%, respectively and illumination was controlled to give a sequence of 12 h light and 12 h dark cycle. Temperature and humidity were recorded by auto-controlled data logger system. All the animals were provided with laboratory rodent diet (Envigo Research private Ltd, Hyderabad). Reverse osmosis water treated with ultraviolet light was provided ad libitum.
Design—Rats (n=3 per treatment group, serial sampling) were administered a solution of either normal saline vehicle or test compound in normal saline at 2 mg/kg (IV) or 10 mg/kg (IM) with a dosing volume of 5 mL/kg (IV) or 1 mL/kg (IM).
Sample Collection—Blood samples (approximately 60 μL) were collected under light isoflurane anesthesia (Surgivet®) from retro orbital plexus from a set of three rats at 0.08, 0.25, 0.5, 1, 2, 4, 6, 8 and 10 h (IV) or 0.25, 0.5, 1, 2, 4, 6, 8 and 10 h (IM). Immediately after blood collection, plasma was harvested by centrifugation 4000 rpm, 10 min at 40° C. and samples were stored at −70±10° C. until bioanalysis.
Data Analysis—Concentrations of the test compound and its parent compound, progesterone C20-oxime, in rat plasma were determined by fit-for-purpose LC-MS/MS method by Sai Life Sciences. […] Cmax represents the mean observed maximum concentration of analyte. Tmax represents the average time at observed Cmax. Areas under the curve (AUC0-last) were calculated via the linear trapezoidal rule using GraphPad Prism v9.

[6] = acetate buffer pH 4.0, read-out: Acetate buffer (pH 4.0) t1/2 (converted)
[7] = acetate buffer pH 5.5, read-out: Acetate buffer (pH 5.5) t1/2 (converted)

Structure (SMILES)	PBS t1/2 ([1]; DPBS pH 7.0-7.3, 1 mg/mL, room temperature) [h]	half-life [1, 6] [days]	half-life [1, 7] [days]	stability in the acidic aqueous mediums [1]	stability in human plasma [2]	formation of the corresponding oxime (progesterone C20-oxime) [2]	half-life [2] [h]	solubility at 90 min [3] [µM]	reduced brain edema [4] [%]	half-life ([1]; buffer, DPBS pH 7.0-7.3, 1 mg/mL, room temperature, read-out: PBS t1/2 (converted)) [days]	reducing brain edema, comparison with EIDD-1723 ([4]; 10 mg/kg dose IM)	formation of parent progesterone C20-oxime [5]
CNCCN(C)C(=O)O/N=C(\C)[C@H]1CC[C@H]2[C@@H]3CCC4=CC(=O)CC[C@]4(C)[C@H]3CC[C@]12C [32b, (E)-9-((8S,9S,10R,13S,14S,17S)-10,13-dimethyl-3-oxo-2,3,6,7,8,9,10,11,12,13,14,15,16,17-tetradecahydro-1H-cyclopenta[a]phenanthren-17-yl)-5-methyl-7-oxa-2,5,8-triazadec-8-en-6-one hydrochloride]	46.9 ± 0.8	96	80	stable	unstable	observed	1.5	> 750	31	–	–	–
C/C(=N\OC(=O)N(C)C[C@@H]1CCCN1)[C@H]1CCC2[C@@H]3CCC4=CC(=O)CC[C@]4(C)[C@H]3CC[C@@]21C.Cl (stereo partly drawn) [32j, (8S,9S,10R,13S,17S)-10,13-dimethyl-17-((E)-1-(((methyl(((S)-pyrrolidin-2-yl)methyl)carbamoyl)oxy)imino)ethyl)-1,2,6,7,8,9,10,11,12,13,14,15,16,17-tetradecahydro-3H-cyclopenta[a]phenanthren-3-one hydrochloride]	–	48	2.4	stable	unstable	observed	< 0.1	–	40	0.0792 ± 0.00417	equally efficacious	rapid and extensive
